Assay results taken from BindingDB's records for doi:10.1021/jm00087a007 (Uppsala University, 1992).

Key:
[1] = Compound was evaluated for its binding affinity against Muscarinic acetylcholine receptor M1 in guinea pig cerebral cortex using (-)-[3H]-QNB as radioligand
[2] = Compound was evaluated for its binding affinity against muscarinic acetylcholine receptor M2 in guinea pig heart using (-)-[3H]-QNB as radioligand
[3] = Compound was evaluated for its binding affinity against Muscarinic acetylcholine receptor M1 in guinea pig cerebral cortex using (-)-[3H]-QNB as radioligand; remark: listed apart in the source
[4] = Compound was evaluated for its binding affinity against muscarinic acetylcholine receptor M2 in guinea pig heart using (-)-[3H]-QNB as radioligand; remark: listed apart in the source
[5] = as above; remark: listed apart in the source

Compound	Ki [1]	Ki [2]	Ki [3]	Ki [4]	Ki [5]
C[C@@H]1CCC2(CN3CCC2CC3)O1 (stereo partly specified)	20 µM	> 25 µM			
C[C@@H]1CC2(CO1)CN1CCC2CC1 (stereo partly specified)			6.3 µM	> 20 µM	
C[C@H]1CC2(CO1)CN1CCC2CC1 (stereo partly specified)	6.5 µM	> 20 µM			
CC1(C)OCC2(CN3CCC2CC3)O1 (stereo unspecified)			9.3 µM		30 µM
C[C@H]1CCC2(CN3CCC2CC3)O1 (stereo partly specified)			15 µM	15 µM	
C1OCC2(CN3CCC2CC3)O1 (stereo unspecified)			19 µM		50 µM
C[C@@H]1OCC2(CN3CCC2CC3)O1 (stereo partly drawn) [(2'S)-2'-methylspiro[4-azabicyclo[2.2.2]octane-2,4'-[1,3]dioxolane]]			6.3 µM	> 21 µM	
C[C@H]1OCC2(CN3CCC2CC3)O1 (stereo partly drawn) [(2'S)-2'-methylspiro[4-azabicyclo[2.2.2]octane-2,4'-[1,3]dioxolane]]			2.9 µM		9.7 µM
